Key:
IPOHE = assay: Postemergence foliar-applied greenhouse weed control, IPOHE; assay type: in vivo, Ipomoea hederacea Jacq.
Description: Seeds or nutlets of the desired test plant species were planted in a soil matrix prepared by mixing a loam or sandy loam soil (e.g., 28.6 percent silt, 18.8 percent clay, and 52.6 percent sand, with a pH of about 5.8 and an organic matter content of about 1.8 percent) and calcareous grit in an 80 to 20 ratio. The soil matrix was contained in plastic pots with a volume of 1 quart and a surface area of 83.6 square centimeters (cm^2). When required to ensure good germination and healthy plants, a fungicide treatment and/or other chemical or physical treatment was applied. The plants were grown for 8-22 days in a greenhouse with an approximate 14 h photoperiod which was maintained at about 29° C. during the day and 26° C. during the night. Nutrients (Peters Excel® 15-5-15 5-Ca 2-Mg and iron chelate) were applied in the irrigation solution as needed and water was added on a regular basis. Supplemental lighting was provided with overhead metal halide 1000-Watt lamps as necessary. The plants were employed for testing when they reached the first through fourth true leaf stage.
Treatments consisted of the acid or esters of 4-amino-3-chloro-5-fluoro-6-(4-chloro-2-fluoro-3-methoxy-phenyl) pyridine-2-carboxylic acid (Compound A), each formulated as an SC (suspension concentrate), and various herbicidal components alone and in combination. Forms of compound A were applied on an acid equivalent basis.
Other herbicidal components were applied on an active ingredient basis and included auxin transport inhibiting (ATI) herbicides chlorflurenol (technical material), chlorflurenol-methyl (technical material), diflufenzopyr (technical material), diflufenzopyr sodium (technical material), flurenol-methyl (technical material) and naptalam (technical material).
Treatment requirements were calculated based upon the rates being tested, the concentration of active ingredient or acid equivalent in the formulation, and a 12 mL application volume at a rate of 187 L/ha.
For treatments comprised of formulated and technical compounds, weighed amounts of the technical materials were placed individually in 25 mL glass vials and dissolved in a volume of 97:3 v/v acetone/DMSO to obtain 12× stock solutions, and measured amounts of the formulated compounds were placed individually in 25 mL glass vials and diluted in a volume of 1.5% (v/v) crop oil concentrate or water to obtain 12× stock solutions. […] Application solutions were prepared by adding an appropriate amount of each stock solution (e.g., 1 mL) and diluted to the appropriate final concentrations with the addition of an appropriate amount of an aqueous mixture of 1.5% (v/v) crop oil concentrate so that the final spray solutions contained 1.25% (v/v) crop oil concentrate. When required, additional water and/or 97:3 v/v acetone/DMSO was added to individual application solutions so that the final acetone and DMSO concentrations of the application solutions being compared were 8.1% and 0.25%, respectively.
All stock solutions and applications solutions were visually inspected for compound compatibility prior to application. Spray solutions were applied to the plant material with an overhead Mandel track sprayer equipped with an 8002E nozzle calibrated to deliver 187 L/ha over an application area of 0.503 m^2 at a spray height of 18 to 20 inches (46 to 50 cm) above average plant canopy height. Control plants were sprayed in the same manner with the solvent blank.
The treated plants and control plants were placed in a greenhouse as described above and watered by sub-irrigation to prevent wash-off of the test compounds. After approximately 3 weeks, the condition of the test plants as compared with that of the untreated plants was determined visually and scored on a scale of 0 to 100 percent where 0 corresponds to no injury or growth inhibition and 100 corresponds to complete kill. […]

LEFCH = assay: In-water applied (paddy) greenhouse weed control, LEFCH; assay type: in vivo, Leptochloa chinensis (L.) Nees; details: 20 DAA
Experimental: Weed seeds or nutlets of the desired test plant species were planted in puddled soil (mud) prepared by mixing a shredded, non-sterilized mineral soil (50.5 percent silt, 25.5 percent clay, and 24 percent sand, with a pH of about 7.6 and an organic matter content of about 2.9 percent) and water at a 1:1 volumetric ratio. The prepared mud was dispensed in 365 mL aliquots into 16-ounce (oz.) non-perforated plastic pots with a surface area of 86.59 square centimeters (cm^2) leaving a headspace of 3 centimeters (cm) in each pot. Mud was allowed to dry overnight prior to planting or transplanting. Rice seeds were planted in Sun Gro MetroMix® 306 planting mixture, which typically has a pH of 6.0 to 6.8 and an organic matter content of about 30 percent, in plastic plug trays. Seedlings at the second or third leaf stage of growth were transplanted into 840 mL of mud contained in 32-oz. non-perforated plastic pots with a surface area of 86.59 cm^2 4 days prior to herbicide application. The paddy was created by filling the headspace of the pots with 2.5 to 3 cm of water. When required to ensure good germination and healthy plants, a fungicide treatment and/or other chemical or physical treatment was applied. The plants were grown for 4-22 days in a greenhouse with an approximate 14 h photoperiod which was maintained at about 29′C during the day and 26° C. during the night. Nutrients were added as Osmocote® (19:6:12, N:P:K+minor nutrients) at 2 g per 16-oz. pot and 4 g per 960-mL 32-oz. pot. Water was added on a regular basis to maintain the paddy flood, and supplemental lighting was provided with overhead metal halide 1000-Watt lamps as necessary. The plants were employed for testing when they reached the second or third true leaf stage.
Treatments consisted of the acid or esters of 4-amino-3-chloro-5-fluoro-6-(4-chloro-2-fluoro-3-methoxy-phenyl)pyridine-2-carboxylic acid (compound A) each formulated as an SC and various herbicidal components alone and in combination. Forms of compound A were applied on an acid equivalent basis.
Other herbicidal components were applied on an active ingredient basis and included auxin transport inhibiting (ATI) herbicides chlorflurenol-methyl (technical material), chlorflurenol (technical material), diflufenzopyr (technical material), dilfufenzopyr sodium (technical material), flurenol-methyl (technical material,) and naptalam (technical material).
Treatment requirements for each compound or herbicidal component were calculated based upon the rates being tested, the concentration of active ingredient or acid equivalent in the formulation, an application volume of 2 mL per component per pot, and an application area of 86.59 cm^2 per pot.
For formulated compounds, a measured amount was placed in an individual 100 or 200 mL glass vial and was dissolved in a volume of 1.25% (v/v) Agri-Dex® crop oil concentrate to obtain application solutions.
For technical grade compounds, a weighed amount was placed in an individual 100 to 200 mL glass vial and was dissolved in a volume of acetone to obtain concentrated stock solutions. […] The concentrated stock solutions obtained were diluted with an equivalent volume of an aqueous mixture containing 2.5% (v/v) crop oil concentrate so that the final application solutions contained 1.25% (v/v) crop oil concentrate.
Applications were made by injecting with a pipetter appropriate amounts of the application solutions, individually and sequentially, into the aqueous layer of the paddy. Control plants were treated in the same manner with the solvent blank. Applications were made so that all treated plant material received the same concentrations of acetone and crop oil concentrate.
The treated plants and control plants were placed in a greenhouse as described above and water was added as needed to maintain a paddy flood. […]

SMILES | Visual Weed Control (%) Obs (IPOHE; 20 DAA, 4.38 gae/ha) | Visual Weed Control (%) Obs (IPOHE; 20 DAA, 8.75 gae/ha) | Visual Weed Control (%) Obs (IPOHE; 20 DAA, 17.5 gae/ha) | Visual Weed Control (%) Obs (LEFCH; 8.75 gae/ha) | Visual Weed Control (%) Obs (LEFCH; 17.5 gae/ha) | Visual Weed Control (%) Obs (LEFCH; 35 gae/ha) | Visual Weed Control (%) Obs (IPOHE; 21 DAA, 4.38 gae/ha) | Visual Weed Control (%) Obs (IPOHE; 21 DAA, 8.75 gae/ha) | Visual Weed Control (%) Obs (IPOHE; 21 DAA, 17.5 gae/ha) | Visual Weed Control (%) Obs (IPOHE; 22 DAA, 8 gae/ha) | Visual Weed Control (%) Obs (IPOHE; 22 DAA, 16 gae/ha) | Visual Weed Control (%) Obs (IPOHE; 22 DAA, 32 gae/ha) | Visual Weed Control (%) Obs (LEFCH; 4.38 gae/ha)
COc1c(Cl)ccc(-c2nc(C(=O)O)c(Cl)c(N)c2F)c1F [Compound A Acid, 4-amino-3-chloro-6-(4-chloro-2-fluoro-3-methoxyphenyl)-5-fluoropyridine-2-carboxylic acid] | 20% | 20% | 50% | 20% | 0% | 30% |  |  |  |  |  |  | 
COc1c(Cl)ccc(-c2nc(C(=O)OCc3ccccc3)c(Cl)c(N)c2F)c1F [Compound A Benzyl Ester] | 10% | 15% |  | 20% | 30% |  | 10% | 10% | 25% | 0% | 25% | 50% | 0%
